# EP1561465A2, “Methods of use of fluoroquinolone compounds against bacteria” (LG Life Sciences, Ltd., priority 1999, dated 2001)
# Like-named read-outs stand apart in the source and are kept apart here.
# Tests used:
# Assay type in all cases: cell-based
# Aeromonas spp. [1] = assay: MIC by agar dilution (NCCLS M7-A4), 288 enteropathogenic isolates, eight quinolones; details: Aeromonas spp. (n = 16)
# Yersinia enterocolitica = assay: MIC by agar dilution (NCCLS M7-A4), 288 enteropathogenic isolates, gemifloxacin and 15 other antimicrobials; details: Yersinia enterocolitica N= 22
# Hafnia alvei = assay: as above; details: Hafnia alvei N= 32
# [2] = test system: Streptococcus pneumoniae and Haemophilus influenzae; assay: MIC by broth microdilution (NCCLS), all isolates pooled
# Haemophilus influenzae = assay: MIC by broth microdilution (NCCLS), dried MicroScan panels, clinical isolates 1998-1999; details: for MIC90: Haemophilus influenzae
# Proteus mirabilis = assay: MIC by agar dilution (NCCLS), 322 nosocomial Gram negative isolates, Athens 1998; details: Proteus mirabilis; n = 57 isolates
# Salmonella spp. [3] = assay: MIC by agar dilution (NCCLS M7-A4), 288 enteropathogenic isolates, eight quinolones; details: for MIC: ciprofloxacin MIC ≥[…], read-out: MIC; for % Susceptible / MIC50 / MIC90 / MIC Range: Salmonella spp. (n = 106)
# Klebsiella pneumoniae = assay: MIC by agar dilution (NCCLS), 322 nosocomial Gram negative isolates, Athens 1998; details: n = 56 isolates; for MIC50 / MIC90: Klebsiella pneumoniae
# Staphylococcus aureus [4] = assay: MIC by agar macrodilution (NCCLS), 373 Gram positive isolates, Athens 1998; details: Methicillin-susceptible Staphylococcus aureus (n = 85); for MIC90: read-out: MIC90
# Aeromonas spp. [5] = assay: MIC by agar dilution (NCCLS M7-A4), 288 enteropathogenic isolates, gemifloxacin and 15 other antimicrobials; details: Aeromonas spp. N= 16
# Pseudomonas aeruginosa = assay: MIC by agar dilution (NCCLS), 322 nosocomial Gram negative isolates, Athens 1998; details: n = 57 isolates
# Staphylococcus aureus [6] = assay: microbe, parasite or virus in culture; details: Staphylococcus aureus
# Shigella spp. = assay: MIC by NCCLS broth microdilution, 1100 Japanese clinical isolates 1997-1998; details: Shigella spp. (n=34)
# Klebsiella oxytoca = assay: as above; details: Klebsiella oxytoca (n=40)
# Proteus vulgaris = assay: as above
# Escherichia coli = assay: as above; details: for MIC50 / MIC90: Escherichia coli
# P. aeruginosa = assay: MIC by two-fold serial agar dilution, quinolone-resistant strains; details: Pseudomonas aeruginosa
# Citrobacter freundii = assay: MIC by NCCLS broth microdilution, 1100 Japanese clinical isolates 1997-1998
# [7] = test system: Staphylococcus epidermidis; assay: as above; details: for MIC50 / MIC90: Staphylococcus epidermidis
# Salmonella spp. [8] = assay: as above; details: Salmonella spp. (n=29)
# Morganella morganii = assay: as above; details: Morganella morganii (n=40)
# Streptococcus pyogenes = assay: as above; details: Streptococcus pyogenes (n=51)
# Enterococcus faecium = assay: as above; details: for MIC: Enterococcus faecium
# [9] = 24 h, read-out: MIC (mg/L) Range
# [10] = Haemophilus influenzae (300 isolates)
# [11] = Salmonella, S. tshiongwe (n = 1)
# [12] = Escherichia coli ciprofloxacin susceptible (n=37)
# [13] = Staphylococcus epidermidis oxacillin susceptible (n=35)
# [14] = Staphylococcus epidermidis oxacillin resistant (n=43)
compound,measurement,setting,value
"Cc1c(F)c(N2CCNC(C)C2)cc2c1c(=O)c(C(=O)O)cn2C1CC1 (centres unmarked) [Grepafloxacin, grepafloxacin]",% Susceptible,Aeromonas spp. [1],100%
same,MIC50,Aeromonas spp. [1],0.03 µg/mL
same,MIC90,Aeromonas spp. [1],0.06 µg/mL
same,MIC Range,Aeromonas spp. [1],≤0.015 to 0.12 µg/mL
same,MIC,Yersinia enterocolitica; [9],0.015 to 0.25 mg/L
same,MIC,Yersinia enterocolitica; read-out: MIC (mg/L) 50%,0.03 mg/L
same,MIC,Yersinia enterocolitica; read-out: MIC (mg/L) 90%,0.03 mg/L
same,MIC,Hafnia alvei; [9],0.015 to 0.06 mg/L
same,MIC,Hafnia alvei; read-out: MIC (mg/L) 50%,0.03 mg/L
same,MIC,Hafnia alvei; read-out: MIC (mg/L) 90%,0.06 mg/L
same,MIC90,"[2]; all (380) isolates tested (235 S. pneumoniae, 145 H. influenzae)",0.12 µg/mL
same,MIC90,[2]; all isolates tested (602),0.12 µg/mL
same,MIC50,Haemophilus influenzae; [10],≤ 0.015 µg/mL
same,MIC Range,Haemophilus influenzae; [10],≤0.015 to 0.12 µg/mL
same,MIC90,Haemophilus influenzae; [10],≤ 0.015 µg/mL
same,MIC90,Haemophilus influenzae; β-lactamase negative (234),≤ 0.015 µg/mL
same,MIC90,Haemophilus influenzae; β-lactamase positive (66),0.03 µg/mL
same,MIC50,Proteus mirabilis,0.5 µg/mL
same,MIC90,Proteus mirabilis,16 µg/mL
same,MIC,Salmonella spp. [3]; S. hadar (n = 2),1 µg/mL
same,MIC,Salmonella spp. [3]; S. newport (n = 1),1 µg/mL
same,MIC,Salmonella spp. [3]; S. virchow (n = 2),0.25 µg/mL
same,% Susceptible,Salmonella spp. [3],99%
same,MIC50,Salmonella spp. [3],0.06 µg/mL
same,MIC90,Salmonella spp. [3],0.25 µg/mL
same,MIC Range,Salmonella spp. [3],0.03 to 2 µg/mL
same,MIC,Salmonella spp. [3]; [11],2 µg/mL
same,MIC50,Klebsiella pneumoniae,0.125 µg/mL
same,MIC90,Klebsiella pneumoniae,1 µg/mL
same,MIC Range,Klebsiella pneumoniae,≤0.03 to 64 µg/mL
same,MIC Range,Staphylococcus aureus [4],0.06 to 32 µg/mL
same,MIC50,Staphylococcus aureus [4]; read-out: MIC50,0.125 µg/mL
same,MIC90,Staphylococcus aureus [4],0.25 µg/mL
same,MIC (mg/L) Range,Aeromonas spp. [5],≤0.015 to 0.12 mg/L
same,MIC,Aeromonas spp. [5]; read-out: MIC (mg/L) 50%,0.03 mg/L
same,MIC,Aeromonas spp. [5]; read-out: MIC (mg/L) 90%,0.06 mg/L
same,MIC50,Pseudomonas aeruginosa,1 µg/mL
same,MIC90,Pseudomonas aeruginosa,> 64 µg/mL
"CC1COc2c(N3CCN(C)CC3)c(F)cc3c(=O)c(C(=O)O)cn1c23 (centres unmarked) [Ofloxacin, ofloxacin]",% Susceptible,Aeromonas spp. [1],100%
same,MIC50,Aeromonas spp. [1],≤ 0.015 µg/mL
same,MIC90,Aeromonas spp. [1],0.03 µg/mL
same,MIC Range,Aeromonas spp. [1],≤0.015 to 0.12 µg/mL
same,MIC,Yersinia enterocolitica; [9],0.03 to 0.5 mg/L
same,MIC,Yersinia enterocolitica; read-out: MIC (mg/L) 50%,0.12 mg/L
same,MIC,Yersinia enterocolitica; read-out: MIC (mg/L) 90%,0.12 mg/L
same,MIC,Hafnia alvei; [9],0.03 mg/L
same,MIC,Hafnia alvei; read-out: MIC (mg/L) 50%,0.03 mg/L
same,MIC,Hafnia alvei; read-out: MIC (mg/L) 90%,0.03 mg/L
same,MIC50,Haemophilus influenzae; [10],≤ 0.06 µg/mL
same,MIC Range,Haemophilus influenzae; [10],≤0.06 to 0.5 µg/mL
same,MIC90,Haemophilus influenzae; [10],≤ 0.06 µg/mL
same,MIC90,Haemophilus influenzae; β-lactamase negative (234),≤ 0.06 µg/mL
same,MIC90,Haemophilus influenzae; β-lactamase positive (66),0.12 µg/mL
same,MIC50,Proteus mirabilis,0.25 µg/mL
same,MIC90,Proteus mirabilis,32 µg/mL
same,MIC,Salmonella spp. [3]; S. hadar (n = 2),2 µg/mL
same,MIC,Salmonella spp. [3]; S. newport (n = 1),2 µg/mL
same,% Susceptible,Salmonella spp. [3],100%
same,MIC50,Salmonella spp. [3],0.12 µg/mL
same,MIC90,Salmonella spp. [3],0.5 µg/mL
same,MIC Range,Salmonella spp. [3],0.06 to 2 µg/mL
same,MIC,Salmonella spp. [3]; [11],2 µg/mL
same,MIC50,Klebsiella pneumoniae,0.125 µg/mL
same,MIC90,Klebsiella pneumoniae,1 µg/mL
same,MIC Range,Klebsiella pneumoniae,0.06 to 32 µg/mL
same,MIC Range,Staphylococcus aureus [4],0.25 to 32 µg/mL
same,MIC90,Staphylococcus aureus [4],1 µg/mL
same,MIC (mg/L) Range,Aeromonas spp. [5],≤0.015 to 0.12 mg/L
same,MIC,Aeromonas spp. [5]; read-out: MIC (mg/L) 50%,≤ 0.015 mg/L
same,MIC,Aeromonas spp. [5]; read-out: MIC (mg/L) 90%,0.03 mg/L
same,MIC50,Pseudomonas aeruginosa,2 µg/mL
same,MIC90,Pseudomonas aeruginosa,> 64 µg/mL
"NC1CCN(c2nc3c(cc2F)c(=O)c(C(=O)O)cn3-c2ccc(F)cc2F)C1 (centres unmarked) [Tosufloxacin, tosufloxacin]",MIC,"Staphylococcus aureus [6]; S. aureus KU2240, mutant type Wild (wild strain)",0.063 µg/mL
same,MIC,"Staphylococcus aureus [6]; S. aureus KU2241, mutant type NorA (efflux-mediated quinolone resistant)",0.125 µg/mL
same,MIC,"Staphylococcus aureus [6]; S. aureus KU2242, mutant type T (DNA topoisomerase IV)",0.25 µg/mL
same,MIC,"Staphylococcus aureus [6]; S. aureus KU2243, mutant type G+T (DNA gyrase and topoisomerase IV)",> 128 µg/mL
same,MIC,"Staphylococcus aureus [6]; S. aureus KU2244, mutant type G (DNA gyrase)",0.125 µg/mL
same,MIC,"Staphylococcus aureus [6]; S. aureus KU2246, mutant type T (DNA topoisomerase IV)",0.5 µg/mL
same,MIC50,Shigella spp.,0.016 µg/mL
same,MIC90,Shigella spp.,0.016 µg/mL
same,MIC Range,Shigella spp.,≤0.008 to 0.032 µg/mL
same,MIC50,Klebsiella oxytoca,0.032 µg/mL
same,MIC90,Klebsiella oxytoca,4 µg/mL
same,MIC Range,Klebsiella oxytoca,≤0.008 to 16 µg/mL
same,MIC50,Proteus vulgaris; Proteus vulgaris,0.125 µg/mL
same,MIC Range,Proteus vulgaris; Proteus vulgaris (n=25),0.063 to 1 µg/mL
same,MIC90,"Proteus vulgaris; Proteus vulgaris (n=25), read-out: MIC90",0.5 µg/mL
same,MIC Range,Escherichia coli; [12],≤0.008 to 0.25 µg/mL
same,MIC50,Escherichia coli; Escherichia coli ciprofloxacin resistant (n=5),32 µg/mL
same,MIC90,"Escherichia coli; Escherichia coli ciprofloxacin resistant (n=5), values marked *: MIC80 value",32 µg/mL
same,MIC50,Escherichia coli; [12],0.032 µg/mL
same,MIC90,Escherichia coli; [12],0.032 µg/mL
same,MIC,P. aeruginosa,1 µg/mL
same,MIC50,Citrobacter freundii; Citrobacter freundii,0.125 µg/mL
same,MIC90,Citrobacter freundii; Citrobacter freundii (n=39),2 µg/mL
same,MIC Range,Citrobacter freundii; Citrobacter freundii (n=39),0.016 to 2 µg/mL
same,MIC Range,[7]; [13],0.032 to 16 µg/mL
same,MIC50,[7]; [14],8 µg/mL
same,MIC90,[7]; [14],> 16 µg/mL
same,MIC50,[7]; [13],0.063 µg/mL
same,MIC90,[7]; [13],4 µg/mL
same,MIC50,Salmonella spp. [8],0.032 µg/mL
same,MIC90,Salmonella spp. [8],0.063 µg/mL
same,MIC Range,Salmonella spp. [8],0.016 to 0.063 µg/mL
same,MIC Range,Morganella morganii,0.032 to 16 µg/mL
same,MIC50,Morganella morganii; read-out: MIC50,0.063 µg/mL
same,MIC90,Morganella morganii; read-out: MIC90,0.25 µg/mL
same,MIC90,Streptococcus pyogenes,1 µg/mL
same,MIC Range,Streptococcus pyogenes,0.063 to 1 µg/mL
same,MIC50,Streptococcus pyogenes; read-out: MIC50,0.25 µg/mL
same,MIC50,Enterococcus faecium; Enterococcus faecium (n=39),> 16 µg/mL
same,MIC90,Enterococcus faecium; Enterococcus faecium (n=39),> 16 µg/mL
same,MIC,"Enterococcus faecium; Enterococcus faecium (vanA) vancomycin resistant, strain TMS1",> 16 µg/mL
same,MIC,"Enterococcus faecium; Enterococcus faecium (vanA) vancomycin resistant, strain TMS2",2 µg/mL
same,MIC,"Enterococcus faecium; Enterococcus faecium (vanA) vancomycin resistant, strain TMS3",> 16 µg/mL
same,MIC,"Enterococcus faecium; Enterococcus faecium (vanA) vancomycin resistant, strain TMS4",> 16 µg/mL
same,MIC,"Enterococcus faecium; Enterococcus faecium (vanA) vancomycin resistant, strain TMS5",4 µg/mL
same,MIC,"Enterococcus faecium; Enterococcus laecium (van B) vancomycin resistant, strain TMS6",> 16 µg/mL
same,MIC,"Enterococcus faecium; Enterococcus laecium (van B) vancomycin resistant, strain TMS7",> 16 µg/mL
